This is an account of results in PubChem BioAssay AID651592 (Sanford-Burnham Center for Chemical Genomics, 2012).

Molecules are shown by their SMILES.

Experiment [1] in a line: inhibitors of NFkB activation in CF airway cells, SAR follow-up, KKLEB cells, panel, IL8 HTRF, NFkB-GFP (AID 651592).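 Further: immortalized cystic fibrosis airway epithelial KKLEB cells with an NF-kB GFP reporter.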 The conditions noted are these: PAF/TNFa-induced NFkB-GFP / IL8 HTRF, CF-PAF assay. (In general: TR-FRET usually uses a lanthanide donor and a delayed reading to cut background.)
For another experiment, the system named is IL8. The experiment is described as above. The conditions noted are these: PAF/TNFa-induced NFkB-GFP / IL8 HTRF, mean of runs, mean IC50 across panel replicates.
Experiment [2] concerns the target Interleukin-8 (Homo sapiens) (UniProt P10145). The description is as above. As to conditions: PAF/TNFa-induced NFkB-GFP / IL8 HTRF.
The mark [3] stands for this setting: mean of runs, mean IC50 across panel replicates.

One may read the IC50 as the concentration that gives 50% inhibition.

Interleukin-8 (Homo sapiens), sequence (P10145 whole entry, looked up): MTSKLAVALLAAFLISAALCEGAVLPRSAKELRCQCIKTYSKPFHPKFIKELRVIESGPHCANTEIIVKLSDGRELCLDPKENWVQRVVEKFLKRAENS

`O=C(Nc1ccc(N2CCN(C(=O)c3ccc(F)cc3)CC2)cc1)c1cc(Br)cc(Br)c1`: the IC50 in experiment [1] (setting [3]), in experiment [1] (run 1), in experiment [1] (run 2), in experiment [1] (run 3), in experiment [1] (run 4) and in experiment [1] (run 5) was more than 66 µM throughout. The IC50 in experiment [1] (run 6) was more than 66 µM; with IL8 (PAF-induced), more than 66 µM; in the experiment on IL8 (TNFa-induced), more than 66 µM; in experiment [2] (IL8, PAF-induced, run 1), more than 66 µM; in experiment [2] (IL8, PAF-induced, run 2), more than 66 µM; in experiment [2] (IL8, PAF-induced, run 3) it was more than 66 µM. Besides, the IC50 is more than 66 µM in experiment [2] (IL8, PAF-induced, run 4); more than 66 µM in experiment [2] (IL8, PAF-induced, run 5); more than 66 µM in experiment [2] (IL8, PAF-induced, run 6); more than 66 µM in experiment [2] (IL8, TNFa-induced, run 1); more than 66 µM in experiment [2] (IL8, TNFa-induced, run 2); more than 66 µM in experiment [2] (IL8, TNFa-induced, run 3). Further, the half-maximal inhibitory concentration (IC50) in experiment [2] (IL8, TNFa-induced, run 4) was more than 66 µM; in experiment [2] (IL8, TNFa-induced, run 5), more than 66 µM; in experiment [2] (IL8, TNFa-induced, run 6) it was more than 66 µM.

In the case of `O=C(Nc1ccc(N2CCN(C(=O)c3ccccc3)CC2)cc1)c1ccccc1`, the IC50 was 50.5 µM in experiment [1] (setting [3]); 30.5 µM in experiment [1] (run 1); 31.9 µM in experiment [1] (run 2); 42.5 µM in experiment [1] (run 3); more than 66 µM in experiment [1] (run 4); more than 66 µM in experiment [1] (run 5). In addition, the IC50 in experiment [1] (run 6) is more than 66 µM; in the experiment on IL8 (PAF-induced), more than 66 µM; with IL8 (TNFa-induced), more than 66 µM; in experiment [2] (IL8, PAF-induced, run 1) it was more than 66 µM; in experiment [2] (IL8, PAF-induced, run 2) it was more than 66 µM; in experiment [2] (IL8, PAF-induced, run 3), more than 66 µM. In addition, the IC50 in experiment [2] (IL8, PAF-induced, run 4) was more than 66 µM; in experiment [2] (IL8, PAF-induced, run 5) it was more than 66 µM; in experiment [2] (IL8, PAF-induced, run 6), more than 66 µM; in experiment [2] (IL8, TNFa-induced, run 1), more than 66 µM; in experiment [2] (IL8, TNFa-induced, run 2), more than 66 µM; in experiment [2] (IL8, TNFa-induced, run 3), more than 66 µM. The IC50 in experiment [2] (IL8, TNFa-induced, run 4) is more than 66 µM; in experiment [2] (IL8, TNFa-induced, run 5), more than 66 µM; in experiment [2] (IL8, TNFa-induced, run 6), more than 66 µM.

`O=C(Nc1ccc(N2CCN(C(=O)c3ccccc3Cl)CC2)cc1)c1ccccc1`: the IC50 in experiment [1] (setting [3]) was 4.12 µM; in experiment [1] (run 1), 3.91 µM; in experiment [1] (run 2) it was 4.12 µM; in experiment [1] (run 3), 4.31 µM; in experiment [1] (run 4), less than 10 µM; in experiment [1] (run 5), less than 10 µM. Further, the IC50 was less than 10 µM in experiment [1] (run 6); 29.9 µM in the experiment with IL8 (PAF-induced); 45.5 µM in the experiment with IL8 (TNFa-induced); more than 66 µM in experiment [2] (IL8, PAF-induced, run 1); more than 66 µM in experiment [2] (IL8, PAF-induced, run 2); 16.7 µM in experiment [2] (IL8, PAF-induced, run 3). The concentration for half-maximal inhibition (IC50) is less than 10 µM in experiment [2] (IL8, PAF-induced, run 4); less than 10 µM in experiment [2] (IL8, PAF-induced, run 5); 10.6 µM in experiment [2] (IL8, PAF-induced, run 6); more than 66 µM in experiment [2] (IL8, TNFa-induced, run 1); more than 66 µM in experiment [2] (IL8, TNFa-induced, run 2); more than 66 µM in experiment [2] (IL8, TNFa-induced, run 3). The IC50 was more than 66 µM in experiment [2] (IL8, TNFa-induced, run 4); more than 66 µM in experiment [2] (IL8, TNFa-induced, run 5); 8.88 µM in experiment [2] (IL8, TNFa-induced, run 6).

For `O=C(Nc1ccc(N2CCN(C(=O)c3ccc(F)cc3)CC2)cc1)c1cccnc1`, the IC50 in experiment [1] (setting [3]) is 41.4 µM; in experiment [1] (run 1), 38.3 µM; in experiment [1] (run 2), 39.4 µM; in experiment [1] (run 3), 46.4 µM; in experiment [1] (run 4), more than 66 µM; in experiment [1] (run 5), more than 66 µM. Further, the IC50 is more than 66 µM in experiment [1] (run 6); more than 66 µM with IL8 (PAF-induced); more than 66 µM with IL8 (TNFa-induced); more than 66 µM in experiment [2] (IL8, PAF-induced, run 1); more than 66 µM in experiment [2] (IL8, PAF-induced, run 2); more than 66 µM in experiment [2] (IL8, PAF-induced, run 3). Moreover, the half-inhibitory concentration (IC50) was more than 66 µM in experiment [2] (IL8, PAF-induced, run 4); more than 66 µM in experiment [2] (IL8, PAF-induced, run 5); more than 66 µM in experiment [2] (IL8, PAF-induced, run 6); more than 66 µM in experiment [2] (IL8, TNFa-induced, run 1); more than 66 µM in experiment [2] (IL8, TNFa-induced, run 2); more than 66 µM in experiment [2] (IL8, TNFa-induced, run 3). Besides, the IC50 in experiment [2] (IL8, TNFa-induced, run 4) is more than 66 µM; in experiment [2] (IL8, TNFa-induced, run 5), more than 66 µM; in experiment [2] (IL8, TNFa-induced, run 6) it was more than 66 µM.

Turning to `O=C(Nc1ccc(N2CCN(C(=O)c3ccccc3F)CC2)cc1)c1cc(Br)cc(Br)c1`, the IC50 in experiment [1] (setting [3]), in experiment [1] (run 1), in experiment [1] (run 2), in experiment [1] (run 3), in experiment [1] (run 4) and in experiment [1] (run 5) was more than 66 µM throughout. Further, the IC50 was more than 66 µM in experiment [1] (run 6); more than 66 µM with IL8 (PAF-induced); more than 66 µM in the experiment on IL8 (TNFa-induced); more than 66 µM in experiment [2] (IL8, PAF-induced, run 1); more than 66 µM in experiment [2] (IL8, PAF-induced, run 2); more than 66 µM in experiment [2] (IL8, PAF-induced, run 3). Further, the IC50 was more than 66 µM in experiment [2] (IL8, PAF-induced, run 4); more than 66 µM in experiment [2] (IL8, PAF-induced, run 5); more than 66 µM in experiment [2] (IL8, PAF-induced, run 6); more than 66 µM in experiment [2] (IL8, TNFa-induced, run 1); more than 66 µM in experiment [2] (IL8, TNFa-induced, run 2); more than 66 µM in experiment [2] (IL8, TNFa-induced, run 3). For the same molecule, the IC50 in experiment [2] (IL8, TNFa-induced, run 4) was more than 66 µM; in experiment [2] (IL8, TNFa-induced, run 5), more than 66 µM; in experiment [2] (IL8, TNFa-induced, run 6), more than 66 µM.
